{"source": "ChEMBL document CHEMBL1129789", "about": "“Dopamine D3 and D4 receptor antagonists: synthesis and structure--activity relationships of (S)-(+)-N-(1-Benzyl-3-pyrrolidinyl)-5-chloro-4- [(cyclopropylcarbonyl) amino]-2-methoxybenzamide (YM-43611) and related compounds” (J Med Chem, 1996)", "biological_target": "T1, Muscarinic acetylcholine receptor M1 (Rattus norvegicus, UniProt P08482)", "T1 sequence (P08482 whole entry)": "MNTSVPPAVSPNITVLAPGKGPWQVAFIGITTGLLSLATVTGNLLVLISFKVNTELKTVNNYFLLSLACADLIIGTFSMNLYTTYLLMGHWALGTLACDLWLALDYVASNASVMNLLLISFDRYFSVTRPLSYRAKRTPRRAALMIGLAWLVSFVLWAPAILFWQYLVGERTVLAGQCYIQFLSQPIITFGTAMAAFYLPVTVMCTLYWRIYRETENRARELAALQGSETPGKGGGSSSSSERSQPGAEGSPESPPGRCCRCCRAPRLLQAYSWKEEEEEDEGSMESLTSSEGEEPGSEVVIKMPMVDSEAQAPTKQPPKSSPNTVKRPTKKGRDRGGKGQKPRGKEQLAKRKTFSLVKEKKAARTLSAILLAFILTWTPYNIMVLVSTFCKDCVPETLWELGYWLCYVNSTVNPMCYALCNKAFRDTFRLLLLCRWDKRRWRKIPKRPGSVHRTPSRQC", "assay": "Compound was tested for the Binding affinity against rat cortical Muscarinic acetylcholine receptor M1 by Radio ligand [3H]pirenzepine binding assay", "data": [{"smiles": "COc1cc(NC(=O)C2CC2)c(Cl)cc1C(=O)N[C@H]1CCN(Cc2ccccc2)C1", "values": [{"measurement": "Ki", "value": 5.4, "unit": "µM"}]}]}
